Structures can show the parent of a compound that is named as a salt.

In this assay the target is catalytic domain of human PARP14 (Homo sapiens (Human), UniProt Q460N5). The experiment in a line: Enzymatic assay for inhibition of PARP14 (DELFIA, auto-modification with biotin-NAD). Type of assay: biochemical. The note with it: auto-modification of PARP14 by biotin-NAD, 50 nM PARP14, 3 μM biotin-NAD. In short, it runs like this: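 His-TEV-tagged PARP14 catalytic domain (50 nM) preincubated with compound 30 min at 25 °C, then auto-modified with 3 μM biotin-NAD for 3 h at 25 °C in HEPES pH 8 buffer with DTT. IC50 from 4-parameter fit, rucaparib and DMSO as controls.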
Sequence of catalytic domain of human PARP14 (Q460N5 1611-1801): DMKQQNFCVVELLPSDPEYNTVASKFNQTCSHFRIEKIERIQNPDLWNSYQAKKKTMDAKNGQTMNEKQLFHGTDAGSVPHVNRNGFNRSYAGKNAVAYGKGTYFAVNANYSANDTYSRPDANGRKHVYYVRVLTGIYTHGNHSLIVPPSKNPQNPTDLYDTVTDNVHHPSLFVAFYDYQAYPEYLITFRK

Turning to `O=c1[nH]c(CSC2CCOCC2)nc2cc(N[C@H]3CC[C@H](N4CCOCC4)CC3)cc(F)c12` [Example 233, 5-Fluoro-7-((trans-4-morpholinocyclohexyl)amino)-2-(((tetrahydro-2H-pyran-4-yl)thio)methyl)quinazolin-4(3H)-one Trifluoroacetate], the IC50 (usually the concentration that gives 50% inhibition) was < 1 µM.

With `Cc1cccc2c(=O)[nH]c(CSC3CCC(CN(C)C)CC3)nc12` (centres unmarked) [Example 67, 2-(((4-((Dimethylamino)methyl)cyclohexyl)thio)methyl)-8-methylquinazolin-4(3H)-one trifluoroacetate], the half-maximal inhibitory concentration (IC50) was < 1 µM. Turning to `Cc1ccnc2c(=O)[nH]c(CSC3CCOCC3)nc12` [Example 41, 8-Methyl-2-(((tetrahydro-2H-pyran-4-yl)thio)methyl)pyrido[3,2-d]pyrimidin-4(3H)-one], the concentration for half-maximal inhibition (IC50) is > 10 µM.

For the compound `O=c1[nH]c(CSC2CCOCC2)nc2cc(N[C@@H]3CCCOC3)c(F)c(F)c12` [Example 348], the concentration for half-maximal inhibition (IC50) is < 1 µM. `O=C(CO)N1CCC(SCc2nc3cc(NC4CCCC4)cc(F)c3c(=O)[nH]2)CC1` [Example 214, 7-(Cyclopentylamino)-5-fluoro-2-(((1-(2-hydroxyacetyl)piperidin-4-yl)thio)methyl)quinazolin-4(3H)-one]: the half-maximal inhibitory concentration (IC50) was < 1 µM. For `O=c1[nH]c(CSC2CCOCC2)nc2cc(NC3CCCCC3)ccc12` [Example 108, 7-(Cyclohexylamino)-2-(((tetrahydro-2H-pyran-4-yl)thio)methyl)quinazolin-4(3H)-one] the value was < 1 µM; for `O=c1[nH]c(CS[C@H]2CC[C@H](CO)CC2)nc2cc(NC3CCCC3)ccc12` [Example 180, 7-(cyclopentylamino)-2-((((1R,4R)-4-(hydroxymethyl)cyclohexyl)thio)methyl)quinazolin-4(3H)-one], < 1 µM; for `COc1cc(NC2CCCC2)cc2nc(CSC3CCOCC3)[nH]c(=O)c12` [Example 207, 7-(Cyclopentylamino)-5-methoxy-2-(((tetrahydro-2H-pyran-4-yl)thio)methyl)quinazolin-4(3H)-one], > 10 µM.

With `Cc1cccc2c(=O)[nH]c(CSC3CCC(O)CC3)nc12` (centres unmarked) [Example 22, 2-(((4-Hydroxycyclohexyl)thio)methyl)-8-methylquinazolin-4(3H)-one], the IC50 is < 1 µM. The compound `Cc1c(Nc2ccccc2)ccc2c(=O)[nH]c(CSC3CCOCC3)nc12` [Example 95, 8-Methyl-7-(phenylamino)-2-(((tetrahydro-2H-pyran-4-yl)thio)methyl) quinazolin-4(3H)-one] gave an IC50 of 1 to 10 µM. As to `O=c1[nH]c(CSC2CCOCC2)nc2cc(OCC3CCN(CCC(F)(F)F)CC3)cc(F)c12` [Example 298, 5-Fluoro-2-(((tetrahydro-2H-pyran-4-yl)thio)methyl)-7-((1-(3,3,3-trifluoropropyl)piperidin-4-yl)methoxy)quinazolin-4(3H)-one], the 50% inhibitory concentration (IC50) was < 1 µM. `CC(=O)N1CCC(Nc2ccc3c(=O)[nH]c(CSC4CCOCC4)nc3c2)C1` (centres unmarked) [Example 134, 7-((1-Acetylpyrrolidin-3-yl)amino)-2-(((tetrahydro-2H-pyran-4-yl)thio)methyl)quinazolin-4(3H)-one]: the IC50 is 1 to 10 µM. Regarding `O=c1[nH]c(CS[C@H]2CC[C@@H](O)CC2)nc2cc(Nc3cccnc3)ccc12` [Example 100, 2-(((cis-4-Hydroxycyclohexyl)thio)methyl)-7-(pyridin-3-ylamino)quinazolin-4(3H)-one], the IC50 was < 1 µM. As to `N#Cc1cc(OCC2CCOC2)cc2nc(CSC3CCOCC3)[nH]c(=O)c12` (centres unmarked) [Example 383], the 50% inhibitory concentration (IC50) is < 1 µM. Take `CC(C)COc1cc(F)c2c(=O)[nH]c(CSC3CCOCC3)nc2c1` [Example 306, 5-Fluoro-7-isobutoxy-2-(((tetrahydro-2H-pyran-4-yl)thio)methyl)quinazolin-4(3H)-one]: the IC50 fell in the range of 1 to 10 µM. For `O=c1[nH]c(CSC2CCOCC2)nc2cc(NCc3cccnc3)ccc12` [Example 123, 7-((Pyridin-3-ylmethyl)amino)-2-(((tetrahydro-2H-pyran-4-yl)thio)methyl)quinazolin-4(3H)-one], the half-inhibitory concentration (IC50) was < 1 µM. The compound `Cc1cccc2c(=O)[nH]c(CSC3CC(CN)C3)nc12` (centres unmarked) [Example 182, 2-(((3-(aminomethyl)cyclobutyl)thio)methyl)-8-methylquinazolin-4(3H)-one] came in with a 50% inhibitory concentration (IC50) of 1 to 10 µM. On to `Cc1cccc2c(=O)[nH]c(CSC3CCN(Cc4cnc5ccccn45)CC3)nc12` [Example 152, 2-(((1-(Imidazo[1,2-a]pyridin-3-ylmethyl)piperidin-4-yl)thio)methyl)-8-methylquinazolin-4(3H)-one trifluoroacetate], for which the IC50 is < 1 µM. In the case of `O=c1[nH]c(CSC2CCS(=O)(=O)CC2)nc2cc(NC3CCCC3)c(F)c(F)c12` [Example 316, 7-(Cyclopentylamino)-2-(((1,1-dioxidotetrahydro-2H-thiopyran-4-yl)thio)methyl)-5,6-difluoroquinazolin-4(3H)-one], the 50% inhibitory concentration (IC50) was < 1 µM. With `O=c1[nH]c(CSC2CCOCC2)nc2cc(OCC3COCCO3)cc(F)c12` (centres unmarked) [Example 344], the IC50 was < 1 µM. As to `Cc1cccc2c(=O)[nH]c(CSC3CCN(CCO)CC3)nc12` [Example 162, 2-(((1-(2-Hydroxyethyl)piperidin-4-yl)thio)methyl)-8-methylquinazolin-4(3H)-one], the IC50 was < 1 µM. For `O=c1[nH]c(CSC2CCOCC2)nc2cc(N[C@H]3C[C@@H](OC(F)(F)F)C3)c(F)c(F)c12` [Example 402] the value was < 1 µM; for `CC(=O)N1CCC(SCc2nc3c(C)cccc3c(=O)[nH]2)CC1` [Example 17, 2-(((1-Acetylpiperidin-4-yl)thio)methyl)-8-methylquinazolin-4(3H)-one], 1 to 10 µM; for `O=C(Nc1ccc2c(=O)[nH]c(CSC3CCOCC3)nc2c1)c1ccccc1` [Example 76, N-(4-Oxo-2-(((tetrahydro-2H-pyran-4-yl)thio)methyl)-3,4-dihydroquinazolin-7-yl)benzamide], 1 to 10 µM. Turning to `O=c1[nH]c(CS[C@@H]2CCNC[C@@H]2F)nc2cc(NC3CCCC3)cc(F)c12` [Example 213b, 7-(cyclopentylamino)-5-fluoro-2-((((3S,4R)-3-fluoropiperidin-4-yl)thio)methyl)quinazolin-4(3H)-one], the IC50 was < 1 µM. As to `O=c1[nH]c(CS[C@H]2CCNC[C@H]2F)nc2cc(NCC3CCC3)c(F)cc12` (relative stereo) [Example 303, 7-((Cyclobutylmethyl)amino)-6-fluoro-2-(((cis-3-fluoropiperidin-4-yl)thio)methyl)quinazolin-4(3H)-one hydrochloride], the IC50 was < 1 µM. As to `Cc1cccc2c(=O)[nH]c(CS[C@H]3CCC[C@@H](CO)C3)nc12` (relative stereo) [Example 71, 2-(((cis-3-(Hydroxymethyl)cyclohexyl)thio)methyl)-8-methylquinazolin-4(3H)-one], the IC50 lay in the range of 1 to 10 µM. For `Cc1cccc2c(=O)[nH]c(CS[C@H]3CCC[C@@H](N)CC3)nc12` (relative stereo) [Example 55, 2-(((cis-4-Aminocycloheptyl)thio)methyl)-8-methylquinazolin-4(3H)-one Trifluoroacetate] the value was 1 to 10 µM; for `O=c1[nH]c(CSC2CCNCC2)nc2nc(OCC3CC3)ccc12` [Example 229, 7-(Cyclopropylmethoxy)-2-((piperidin-4-ylthio)methyl)pyrido[2,3-d]pyrimidin-4(3H)-one Hydrochloride], < 1 µM. For `O=c1[nH]c(CSC2CCN(Cc3ccccn3)CC2)nc2cc(NC3CCCC3)cc(F)c12` [Example 281, 7-(Cyclopentylamino)-5-fluoro-2-(((1-(pyridin-2-ylmethyl)piperidin-4-yl)thio)methyl)quinazolin-4(3H)-one], the half-inhibitory concentration (IC50) is < 1 µM. With `CS(=O)(=O)N1CCC[C@@H](Nc2ccc3c(=O)[nH]c(CSC4CCNCC4)nc3c2)C1` [Example 196, (R)-7-((1-(methylsulfonyl)piperidin-3-yl)amino)-2-((piperidin-4-ylthio)methyl)quinazolin-4(3H)-one] the figure was < 1 µM; with `Cc1cc(NCC2CC2(F)F)cc2nc(CSC3CCNCC3)[nH]c(=O)c12` (centres unmarked) [Example 284, 7-(((2,2-Difluorocyclopropyl)methyl)amino)-5-methyl-2-((piperidin-4-ylthio)methyl)quinazolin-4(3H)-one hydrochloride], < 1 µM. Turning to `O=c1[nH]c(CSC2CCOCC2)nc2cc(OC[C@@H]3CCOC3)cc(F)c12` [Example 239a, (R)-5-fluoro-2-(((tetrahydro-2H-pyran-4-yl)thio)methyl)-7-((tetrahydrofuran-3-yl)methoxy)quinazolin-4(3H)-one], the IC50 is < 1 µM. Turning to `O=c1[nH]c(CSC2CCNCC2)nc2cc(NC3CCCC3)c(F)c(F)c12` [Example 232, 7-(Cyclopentylamino)-5,6-difluoro-2-((piperidin-4-ylthio)methyl)quinazolin-4(3H)-one Hydrochloride], the IC50 is < 1 µM.

Take `Cc1cccc2c(=O)[nH]c(CS[C@@H]3CCC[C@H](CO)O3)nc12` (relative stereo) [Example 260, 2-(((Cis-6-(hydroxymethyl)tetrahydro-2H-pyran-2-yl)thio)methyl)-8-methylquinazolin-4(3H)-one]: the half-maximal inhibitory concentration (IC50) is > 10 µM. As for `O=c1[nH]c(CSC2CCOCC2)nc2cc(NC3CCC3)ccc12` [Example 122, 7-(Cyclobutylamino)-2-(((tetrahydro-2H-pyran-4-yl)thio)methyl)quinazolin-4(3H)-one], the half-maximal inhibitory concentration (IC50) is < 1 µM. With `CC(=O)NC1(C)CCC(SCc2nc3cc(OCC4CC4)cc(F)c3c(=O)[nH]2)CC1` (centres unmarked) [Example 380] the figure was < 1 µM. As to `O=c1[nH]c(CSC2CCOCC2)nc2cc(Nc3cccnc3)ccc12` [Example 80, 7-(Pyridin-3-ylamino)-2-(((tetrahydro-2H-pyran-4-yl)thio)methyl)quinazolin-4(3H)-one], the IC50 is < 1 µM.

The values are drawn from US10562891B2, “Quinazolinones as PARP14 inhibitors” (Ribon Therapeutics Inc., priority 2017, dated 2020).
